Common to all, as to format: cell-based
In data set [1] the target is T1, E3 ubiquitin-ligase Hakai (Mus musculus, UniProt Q9JIY2).
T1 construct: expressed in transfected cells; host or cells: HEK293T (293) cells, co-transfected with v-Src and HA-ubiquitin, and in A3 also with myc-E-cadherin
T1 sequence (Q9JIY2 1-491): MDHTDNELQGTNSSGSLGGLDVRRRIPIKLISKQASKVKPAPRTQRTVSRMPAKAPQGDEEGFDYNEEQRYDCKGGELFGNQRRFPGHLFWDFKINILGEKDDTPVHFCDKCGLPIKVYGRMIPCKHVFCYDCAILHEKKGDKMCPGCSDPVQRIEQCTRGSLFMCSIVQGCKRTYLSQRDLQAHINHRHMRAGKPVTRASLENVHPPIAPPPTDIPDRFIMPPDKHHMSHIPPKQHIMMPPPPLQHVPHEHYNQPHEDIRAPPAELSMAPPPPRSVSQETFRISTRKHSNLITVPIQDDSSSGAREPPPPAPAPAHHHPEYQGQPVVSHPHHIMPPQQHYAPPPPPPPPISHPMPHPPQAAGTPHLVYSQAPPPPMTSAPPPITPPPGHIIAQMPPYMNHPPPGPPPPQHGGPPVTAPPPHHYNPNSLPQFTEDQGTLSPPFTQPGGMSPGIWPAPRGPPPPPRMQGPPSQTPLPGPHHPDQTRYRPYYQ
Briefly: Hakai-dependent ubiquitination assay in 293T cells transfected with Flag-Hakai, v-Src and HA-ubiquitin. Particulars: 293T cells transfected with Src, treated 36 h, DMSO as control. On the procedure: For ubiquitination assays, 750.000 HEK293T cells were seeded in 6-well cell culture plates and after 24 h were transfected with 0.25 μg Src, 0.75 μg Flag-Hakai, and 0.5 μg HA-ubiquitin with Lipofectamin 2000 (Invitrogen, UK). Six hours after transfection cells were treated with indicated concentrations of Hakin-1, Hakin-5 or the rest of the analogues tested for 36 h. Whole cell extracts were obtained in lysis buffer (20 mM Tris-HCl pH 7.5, 150 mM NaCl and 1% Triton X-100) containing 10 μg/ml leupeptin, 10 μg/ml aprotinin and 1 mM phenylmethanesulphonyl fluoride (PMSF), supplemented with 10 mM N-ethylmaleimide. Cells were harvested and subjected to western blotting using anti-HA antibody to detect ubiquitination.

In data set [2] the test system is Hakai-MDCK cell lines (clone 4 and clone 11). Briefly: MTT cell viability assay, Hakai-MDCK. The note with it: both clones of Hakai-MDCK compared to MDCK; 72 h. On the procedure:
(§1) For cytotoxicity assays, 1×10^4 cells were seeded per well into a 96-well plate. After 24 h cells were treated with the indicated inhibitors for 72 h and a MTT colorimetric cell viability assay was performed following manufacturer's instructions (Sigma Aldrich, St Louis, Mo.). Absorbance was measured at 570 and 630 nm using a Multiskan Plus Reader (Nanoquant Infinite M200 Tecan Trading AG, Switzerland). Dose-response curves were designed with Graph Pad Prism Software and the half-maximal inhibitory concentration (IC50) values were calculated. Represented data are the mean±SEM of at least three independent experiments with six replicates per condition.

In data set [3] the test system is normal epithelial MDCK cell line. Briefly: MTT cell viability assay, MDCK. The note with it: normal epithelial MDCK compared to Hakai-MDCK; 72 h. On the procedure:
as §1
Background: Tetrazolium assays rely on reduction of a dye to a coloured formazan, in cell work by metabolically active cells.

Data set [4] relates to Hakai-transformed MDCK cells. The data set is described as follows: Phase-contrast cell phenotype, Hakai-MDCK. On the procedure:
MDCK, HEK293T, HepG2, MCF7 and ACHN cells were cultured in Dulbecco's Modified Eagles Medium (DMEM). MDCK stably expressing Hakai cells (Hakai-MDCK) were previously reported and were growth in DMEM with G418 (800 μg/ml). […] LoVo and PC-3 cells were cultured in F-12K Medium (Kaighn's Modification of Ham's F-12 Medium) and HT-29 cells in McCoy's 5a Medium Modified. 5637 cells were cultured in RPMI medium. All culture media were supplemented with 1% penicillin/streptomycin and 10% of heat-inactivated fetal bovine serum (FBS) at 37° C. in a humidified incubator with 5% CO2. Cells were monthly tested for mycoplasma contamination and used only for 1-3 months after defrosted. LoVo and HT29 cells were authenticated with the StemElite ID system (Promega). For phase-contrast images, culture cells were photographed with a Nikon Eclipse-TI microscope.

The subject of a further data set is HT29 cells. The data set is described as follows: BrdU proliferation assay, HT29. The note with it: 48 h. The procedure:
(§2) For BrdU assays, 1×10^4 of indicated cells were plated per well into a 96-well plate. After 24 h, cells were treated with the indicated inhibitors for 48 h. Three independent experiments were plated with six replicates per each condition. Cells were treated with […] BrdU for 2 h. BrdU incorporation into newly synthesized DNA was measured using a cell proliferation colorimetric immunoassay kit according to the manufacturer's instructions (Roche, Switzerland). Results are expressed as mean±S.D. Results are represented as percentage of positive cells (mean±S.D) of three independent experiments.

Data set [5] relates to HT-29 cells. Briefly: Western blotting of EMT markers, HT-29. The note with it: 48 h. On the procedure: (§3) For western blot analysis, cells were treated with the indicated inhibitors for 48 h and the whole cell extracts were obtained as described previously. Twenty micrograms of lysates were resolved on a 10% polyacrilamide SDS-PAGE followed by western blot analysis performed as previously described. For immunofluorescence assays cells were grown for 24 h on glass coverslips and treated with the indicated inhibitors for 48 h. Cells were fixed with 4% PFA for 15 min, permeabilized with 0.5% […] and incubated with E-cadherin antibody for 2 h. Coverslips were incubated with fluorescein-tagged secondary antibody (Dakopatts, Sweden) for […]. Finally coverslips were mounted with ProLong Gold antifade reagent (LifeTech, UK) and images were taken in epifluorescence microscope (Olympus) using 40× objective.
On the technique in general: A western blot detects proteins with antibodies after separation by electrophoresis.

Another data set deals with LoVo cells. The data set is described as follows: BrdU proliferation assay, LoVo. The note with it: 48 h. The procedure:
as §2

Data set [6] relates to HT-29 cells. Briefly: Immunofluorescence of E-cadherin, HT-29. The note with it: 48 h. The procedure: as §3
Data set [7] relates to HT-29 colon tumour cell line. The data set is described as follows: MTT cell viability assay, HT29. Particulars: 72 h, analogues at 50-500 μM. On the procedure:
as §1

Experimental findings from patent US20220016080A1, “COMPOUNDS THAT SELECTIVELY AND EFFECTIVELY INHIBIT HAKAI-MEDIATED UBIQUITINATION, AS ANTI-CANCER DRUGS” (FUNDACIÓN PROFESOR NOVOA SANTOS, priority 2018, published 2022) are described below.

Turning to `CC(/C=C/C(=O)O)=C\CC(O)/C(C)=C/CCC(C)C(C)O` (stereo not shown) [Hakin-5, (2E,4E,8E)-7,13-Dihydroxy-4,8,12-trimethyl-2,4,8-tetradecatrienoic acid, reference compound], the “ubiquitination mediated by Hakai (western blotting, anti-HA)” value in [1] is given as “no effect was detected”. In addition, the results for the “sensitivity to treatment (cell viability, MTT)” value in data set [2] and in data set [3] were “more sensitive” and “more resistant”, respectively. Further, the “mesenchymal phenotype (phase contrast)” value in [4] is listed as “induction of an epithelial phenotype”. The “cell proliferation (BrdU)” value in the data set with HT29 cells and in the data set with LoVo cells was “no effect was seen” each time. Besides, the “E-cadherin levels (western blotting)” value with HT-29 cells [5] is given as “no effect”. In addition, the “E-cadherin levels at cell-cell contacts (immunofluorescence)” value in the data set on HT-29 cells [6] is “no effect”.

Regarding `O=C(O)c1ccc(-n2nnnc2SCC(=O)c2ccc(Cl)s2)cc1` [Hakin A-23], in [1], the “ubiquitination mediated by Hakai (western blotting, anti-HA)” value was “inhibitory effect of Hakai activity”. Besides, the “cytotoxicity effect (cell viability, MTT)” value in data set [7] was “important inhibitory response”.
